{
  "source": "patent US8389468B2",
  "about": "“Approach to the treatment of compartment syndrome” (Lantmannen AS-Faktor AB, priority 2006, dated 2013)",
  "key": {"[1]": {"tested_on": "liver, spleen, kidney and thyroid", "test": "Mechanical injury of liver, spleen, kidney and thyroid", "format": "in vivo, rat", "settings": "compression and abrasion, vs vehicle", "text": "The liver, spleen, kidney and thyroid were similarly mechanically injured by compression and exposed to abrasion. […] Further the prevalence of ascites and related types of excessive extracellular fluid at elevated pressure was reduced. Thus AF-16 reduced the extent and severity of the CS in parenchymatous organs and tissues."}, "HSV-1 infected rats": {"tested_on": "HSV-1 infected rats", "test": "Survival of rats infected with HSV-1", "format": "in vivo, rat", "settings": "10 pg or 25 pg AF-16 intranasally twice daily", "protocol": "FIG. 3: Survival frequency of rats infected with HSV-1 by the administration of a virus solution in the right nostril on day 0. Half of the rats (n=15) were treated twice daily with 1 μg AF-16 (upper line), a peptide composed of the amino acids VCHSKTRSNPENNVGL (SEQ ID NO: 1), twice daily intranasally, while the other half received just the vehicle after the HSV-1 infection (lower line). Of those treated with just the vehicle only 10% survived day 14, contrasting to the 60% of those treated with AF-16.\nTherefore, rats were infected by instillation in their right nostril of 25 μL of a solution of the herpes simplex virus type 1 (HSV-1; strain 2762, batch 041028; 1.7×10^7 PFU/mL). Half of the animals received 10 min later 25 μL (1, 10 or 25 pg) of AF-16 in their right nostril, and had thereafter the same dose of AF-16 instilled every morning at 8 AM and every night at 6 PM until the experiment was terminated on day 14. The other half of the group of HSV-1 infected rats received 25 μL of the vehicle, PBS, at the same time schedule. The animals were several times daily closely watched for signs of behavioral dysfunction or general sickness. If so, the animals were sacrificed. The FIG. 3 is illustrating the survival rates for the animals, all being infected with HSV-1. […]"}, "[2]": {"tested_on": "inflammation markers IL-1, IL-6, and TNF-a", "test": "Inflammation markers in CSF of HSV-1 infected rats", "format": "in vivo, rat", "settings": "day 6, 1 or 10 pg intranasally twice daily, n=3", "protocol": "To test that hypothesis, adult rats were infected by having a solution of the herpes simplex virus type 1 (HSV-1; strain 2762, batch 041028; 1.7×10^7 PFU/mL) instilled in their right nostril. Half of the animals received 10 min later 25 μL (1 or 10 pg) of AF-16 in their right nostril, and had thereafter the same dose of AF-16 instilled every morning at 8 AM and every night at 6 PM until the experiment was terminated on day 6. The other half of the HSV-1 infected rats received at the same time intervals 25 μL of the vehicle, phosphate buffered saline. On day 6, cerebrospinal fluid (CSF) samples were taken from the animals, either treated with AF-16 (n=3), or the vehicle (n=3), according to the procedure described by Huang, Saljo and Hansson (1996). […] It is concluded that treatment with AF-16 is not likely to improve the survival of rodents suffering from HSV-1 encephalitis by altering the inflammatory response, but by normalizing the intracranial pressure, thereby preventing prevalence of high ICP in a CC and thereby the development of a CS. The deleterious effects caused by the HSV-1 encephalitis were thus considered to be due to that AF hampered the development of a CS."}, "implanted tumours": {"tested_on": "implanted tumours", "test": "Interstitial fluid pressure (IFP) in implanted tumours", "format": "in vivo, rodents", "protocol": "Tumours, malignant as well as benign, have been implanted subcutaneously and intramuscularly in rodents. Every second animal, having tumours with a diameter ranging from 10 mm to 15 mm, was treated with AF proteins or AF-16, systemically with the aid of subcutaneously implanted Alzet osmotic minipumps, by injections of AF-16 at or into the tumour. In another experiment, the AF-16 peptide was delivered from an implanted Alzet 2001 pump directly onto and/or into the tumour with a fine silicone tube. Additional rats had the AF-protein induced by their feed ort by having AF in egg yolk. For comparison, an equal number of rats received the same treatment but with the vehicle. The interstitial fluid pressure (IFP) in the tumour as well as at its adjacent regions was determined with the aid of a Samba glass fibre pressure sensor (diameter 0.4 mm), with and without a protecting tubing, as well as with equipment enabling determination of the interstitial fluid pressure by the “wick” technique. […] The IFP in the adjacent connective tissue was ranging from 0 to 4 mm Hg, but could occasionally be negative. Tumours in the range of 10-15 mm, and treated with AF-16 as described above, got a reduction of the IFP, which turned reduced to usually 12 mm Hg or less."}},
  "data": [
    {"sequence": "VCHSKTRSNPENNVGL [AF-16]", "values": [
      {"measurement": "oedema and swelling of injured organs", "setting": "[1]", "result": "reduce the oedema and swelling"},
      {"measurement": "signs of neurological dysfunction", "setting": "HSV-1 infected rats", "result": "none showed any signs of neurological dysfunction"},
      {"measurement": "survival at day 14", "setting": "HSV-1 infected rats", "result": "all the infected animals survived"},
      {"measurement": "IL-1 concentration in CSF vs vehicle", "setting": "[2]", "result": "no significant difference in the concentrations"},
      {"measurement": "IL-6 concentration in CSF vs vehicle", "setting": "[2]", "result": "no significant difference in the concentrations"},
      {"measurement": "TNF-a concentration in CSF vs vehicle", "setting": "[2]", "result": "no significant difference in the concentrations"},
      {"measurement": "inflammatory reaction in tumour (light microscopy)", "setting": "implanted tumours; in vivo", "result": "reduced the intensity and extent of the inflammatory reaction"},
      {"measurement": "interstitial fluid pressure (IFP) in the tumour", "setting": "implanted tumours; tumours 10-15 mm, vehicle in excess of 12", "result": "≤ 12", "unit": "mm Hg"}
    ]}
  ]
}
